Data as given in publication PMC9050923, “6,N^2-Diaryl-1,3,5-triazine-2,4-diamines: synthesis, antiproliferative activity and 3D-QSAR modeling” (RSC Advances, 2020).

What was measured:
Format in all cases: cell-based
MDA-MB231 = experiment: MTT assay, MDA-MB231 breast cancer cells; details: Homo sapiens, MDA-MB-231, MTT; for viability at 10 µM: 72 h after the treatment, mean of three independent experiments, read-out: Percentage of cell viability MDA-MB231; for GI50: 72 h, mean of three independent experiments ± SEM, read-out: GI50 (μM) ± SEM MDA-MB231
Procedure: (§1) The prepared compounds 1–126 were tested on three breast cancer cell lines namely, MDA-MB231, SKBR-3 and MCF-7 using MTT assay. SKBR-3 and MCF-7 cell lines are estrogen and progesterone hormone positive cell lines often used as a model for the hormone therapy.[18] MDA-MB231 is triple negative breast cancer cell line, which is negative to estrogen and progesterone receptors and human epidermal growth factor receptor 2, a perfect model for chemotherapy.[18] Initially, all the prepared compounds 1–126 were tested on these three cancer cell lines at the screening concentration (10 μM) and percentage of cell viability was calculated 72 h after the treatment (Table 1).
(§2) The growth inhibitory effect of the compounds was determined on breast tumor cell line (MDA-MB231, SKBR-3 and MCF-7) at different concentrations with methotrexate and nilotinib as positive controls (Table 2).
(§3) The cytotoxic activity of 6,N^2-diaryl-1,3,5-triazine-2,4-diamines (1–126) was evaluated against three breast carcinoma cell lines (MDA-MB231, SKBR-3, and MCF-7) and normal breast cell line (MCF-10A) by MTT assay.[22] All cells were obtained from the American Type Culture Collection and were grown in 10% fetal bovine serum and 1% pen-strep antibiotic supplemented media (DMEM for MDA-MB231 and SKBR-3, RPMI for MCF-7, and MEGM for MCF-10A). For MTT assay, 20 000 to 75 000 cells per mL (based on the doubling time for each cell line) were seeded in 96 well plates and incubated for 24 h at 37 °C in 5% CO2 incubator. Then, compounds at different concentrations were added followed by the incubation at 37 °C for 72 h. After that, MTT solution (0.5 mg mL^−1) was added and the plates were incubated for another 4 h. The supernatant was then discarded and 100 μL of DMSO was added to each well. The plates were then read by Tecan NanoQuant (model: infinite m200 pro) plate reader and absorbance was measured at 570 nm. GI50 values were calculated using sigmoidal concentration–response curves (see ESI ^†) generated using the GraphPad Prism 7 program. Three independent experiments were carried out and the data were represented as mean of the three experiments.

SKBR-3 = experiment: MTT assay, SKBR-3 breast cancer cells; details: Homo sapiens, SK-BR-3, MTT; for viability at 10 µM: 72 h after the treatment, mean of three independent experiments, read-out: Percentage of cell viability SKBR-3
Procedure: as §1, §2, §3

MCF-7 = experiment: MTT assay, MCF-7 breast cancer cells; details: Homo sapiens; for viability at 10 µM: MCF7, 10 μM, 72 h after the treatment, mean of three independent experiments, read-out: Percentage of cell viability MCF-7
Procedure: as §1, §2, §3

SMILES | viability at 10 µM (MDA-MB231) [%] | viability at 10 µM (SKBR-3) [%] | viability at 10 µM (MCF-7) [%] | GI50 (MDA-MB231) [µM] | GI50 (MCF-7; MCF7, 72 h, mean of three independent experiments ± SEM) [µM] | GI50 (SKBR-3; 72 h, mean of three independent experiments ± SEM) [µM]
Nc1nc(Nc2ccccc2)nc(-c2ccccc2)n1 [Compound 1] | 87 | 81 | 90 | – | – | –
Nc1nc(Nc2ccccc2Cl)nc(-c2ccccc2)n1 [Compound 4, N ^2-(2-Chlorophenyl)-6-phenyl-1,3,5-triazine-2,4-diamine] | 72 | 88 | 81 | – | – | –
Nc1nc(Nc2ccc(Cl)cc2)nc(-c2ccccc2)n1 [Compound 5] | 65 | 94 | 100 | – | – | –
Nc1nc(Nc2ccc(Br)cc2)nc(-c2ccccc2)n1 [Compound 6] | 65 | 97 | 100 | – | – | –
Cc1ccc(Nc2nc(N)nc(-c3ccccc3)n2)cc1 [Compound 7] | 98 | 87 | 87 | – | – | –
COc1ccccc1Nc1nc(N)nc(-c2ccccc2)n1 [Compound 8] | 78 | 97 | 91 | – | – | –
COc1ccc(Nc2nc(N)nc(-c3ccccc3)n2)cc1 [Compound 9] | 98 | 96 | 84 | – | – | –
Nc1nc(Nc2ccc(OC(F)(F)F)cc2)nc(-c2ccccc2)n1 [Compound 10] | 96 | 86 | 92 | – | – | –
CC(C)c1ccc(Nc2nc(N)nc(-c3ccccc3)n2)cc1 [Compound 11] | 99 | 86 | 99 | – | – | –
Nc1nc(Nc2cccnc2)nc(-c2ccccc2)n1 [Compound 12] | 59 | 78 | 87 | – | – | –
Nc1nc(Nc2ccccc2)nc(-c2cccc(F)c2)n1 [Compound 13] | 100 | 100 | 89 | – | – | –
Nc1nc(Nc2ccc(Cl)cc2)nc(-c2cccc(F)c2)n1 [Compound 15] | 100 | 100 | 89 | – | – | –
CC(C)c1ccc(Nc2nc(N)nc(-c3cccc(F)c3)n2)cc1 [Compound 20] | 100 | 100 | 92 | – | – | –
Nc1nc(Nc2ccccc2)nc(-c2ccc(F)cc2)n1 [Compound 21] | 83 | 94 | 100 | – | – | –
Nc1nc(Nc2ccccc2F)nc(-c2ccc(F)cc2)n1 [Compound 22] | 83 | 85 | 100 | – | – | –
Nc1nc(Nc2ccc(F)cc2)nc(-c2ccc(F)cc2)n1 [Compound 23] | 81 | 100 | 93 | – | – | –
Nc1nc(Nc2ccccc2Cl)nc(-c2ccc(F)cc2)n1 [Compound 24] | 75 | 75 | 91 | – | – | –
Nc1nc(Nc2cccc(Cl)c2)nc(-c2ccc(F)cc2)n1 [Compound 25] | 73 | 88 | 95 | – | – | –
Nc1nc(Nc2ccc(Cl)cc2)nc(-c2ccc(F)cc2)n1 [Compound 26] | 67 | 98 | 87 | – | – | –
Nc1nc(Nc2ccc(Br)cc2)nc(-c2ccc(F)cc2)n1 [Compound 27] | 96 | 100 | 94 | – | – | –
Cc1ccc(Nc2nc(N)nc(-c3ccc(F)cc3)n2)cc1 [Compound 28] | 99 | 90 | 88 | – | – | –
COc1ccccc1Nc1nc(N)nc(-c2ccc(F)cc2)n1 [Compound 29] | 60 | 81 | 96 | – | – | –
Nc1nc(Nc2ccc(OC(F)(F)F)cc2)nc(-c2ccc(F)cc2)n1 [Compound 31] | 88 | 92 | 87 | – | – | –
CC(C)c1ccc(Nc2nc(N)nc(-c3ccc(F)cc3)n2)cc1 [Compound 32] | 94 | 100 | 84 | – | – | –

SMILES | viability at 10 µM (MDA-MB231) [%] | viability at 10 µM (SKBR-3) [%] | viability at 10 µM (MCF-7) [%] | GI50 (MDA-MB231) [µM] | GI50 (MCF-7; MCF7, 72 h, mean of three independent experiments ± SEM) [µM] | GI50 (SKBR-3; 72 h, mean of three independent experiments ± SEM) [µM]
Nc1nc(Nc2cccnc2)nc(-c2ccc(F)cc2)n1 [Compound 33] | 74 | 87 | 85 | – | – | –
Nc1nc(Nc2ccccc2F)nc(-c2ccc(Cl)cc2)n1 [Compound 35] | 82 | 99 | 93 | – | – | –
Nc1nc(Nc2ccccc2Cl)nc(-c2ccc(Cl)cc2)n1 [Compound 37] | 99 | 89 | 99 | – | – | –
Nc1nc(Nc2cccc(Cl)c2)nc(-c2ccc(Cl)cc2)n1 [Compound 38] | 99 | 92 | 84 | – | – | –
Nc1nc(Nc2ccc(Cl)cc2)nc(-c2ccc(Cl)cc2)n1 [Compound 39] | 97 | 100 | 100 | – | – | –
Nc1nc(Nc2ccc(Br)cc2)nc(-c2ccc(Cl)cc2)n1 [Compound 40] | 80 | 100 | 92 | – | – | –
COc1ccccc1Nc1nc(N)nc(-c2ccc(Cl)cc2)n1 [Compound 41] | 83 | 89 | 100 | – | – | –
COc1ccc(Nc2nc(N)nc(-c3ccc(Cl)cc3)n2)cc1 [Compound 42] | 61 | 90 | 85 | – | – | –
Nc1nc(Nc2ccc(OC(F)(F)F)cc2)nc(-c2ccc(Cl)cc2)n1 [Compound 43] | 93 | 83 | 100 | – | – | –
CC(C)c1ccc(Nc2nc(N)nc(-c3ccc(Cl)cc3)n2)cc1 [Compound 44] | 100 | 97 | 96 | – | – | –
Nc1nc(Nc2cccnc2)nc(-c2ccc(Cl)cc2)n1 [Compound 45] | 99 | 74 | 89 | – | – | –
Nc1nc(Nc2ccccc2F)nc(-c2ccc(Br)cc2)n1 [Compound 46] | 75 | 91 | 100 | – | – | –
Nc1nc(Nc2ccc(F)cc2)nc(-c2ccc(Br)cc2)n1 [Compound 47] | 58 | 98 | 100 | – | – | –
Nc1nc(Nc2ccccc2Cl)nc(-c2ccc(Br)cc2)n1 [Compound 48] | 90 | 93 | 100 | – | – | –
Nc1nc(Nc2ccc(Cl)cc2)nc(-c2ccc(Br)cc2)n1 [Compound 49] | 96 | 100 | 100 | – | – | –
Cc1ccc(Nc2nc(N)nc(-c3ccc(Br)cc3)n2)cc1 [Compound 50] | 55 | 93 | 88 | – | – | –
COc1ccccc1Nc1nc(N)nc(-c2ccc(Br)cc2)n1 [Compound 51] | 88 | 89 | 96 | – | – | –
COc1ccc(Nc2nc(N)nc(-c3ccc(Br)cc3)n2)cc1 [Compound 52] | 56 | 91 | 100 | – | – | –
Cc1cccc(-c2nc(N)nc(Nc3ccc(F)cc3)n2)c1 [Compound 53, N ^2-(4-Fluorophenyl)-6-(3-methylphenyl)-1,3,5-triazine-2,4-diamine] | 100 | 100 | 78 | – | – | –
Cc1cccc(-c2nc(N)nc(Nc3ccc(Cl)cc3)n2)c1 [Compound 54] | 100 | 93 | 76 | – | – | –
Cc1cccc(-c2nc(N)nc(Nc3ccc(Br)cc3)n2)c1 [Compound 55] | 83 | 96 | 75 | – | – | –
CN(Cc1cnc2nc(N)nc(N)c2n1)c1ccc(C(=O)N[C@@H](CCC(=O)O)C(=O)O)cc1 [Methotrexate, reference compound] | – | – | – | 0.01 ± 0.001 | 5.79 ± 0.47 | –
Cc1cn(-c2cc(NC(=O)c3ccc(C)c(Nc4nccc(-c5cccnc5)n4)c3)cc(C(F)(F)F)c2)cn1 [Nilotinib, reference compound] | – | – | – | 0.04 ± 0.001 | – | 9.6 ± 0.51
